# From patent publication US20190216751A1, “Compositions and Methods for the Treatment and Prevention of Cancer” (California State University Northridge, priority 2017, published 2019)
# Tests used:
# [1] = test system: ZEB1 expression in 4T1 cells; experiment: qPCR ZEB1 mRNA, TGFβ-induced EMT; format: cell-based, mouse; conditions: for ZEB1 mRNA expression: GC7 10 μM pre-treatment
# Text: The pathway in which the inventors are interested in targeting eIF5A is in the context of TGFβ-induced EMT and TGFβ is a well-characterized inducer of EMT. […] Phase-contrast images are shown to the right of the western blot to indicate a shift in morphology after treatment with TGFβ. […] Since TGFβ can induce PEAK1 upregulation, while in contrast, hypusinated eIF5A promotes PEAK1 translation, the inventors sought to see if TGFβ alone can upregulate hypusinated eIF5A. Post-translational modifications can occur relatively fast. Therefore short-term treatments of TGFβ on 4T1, 67NR and MCF10CA1a cells were performed initially. Protein lysates were collected after 10, 30 and 120 minutes of treatment and immunoblotted for hypusine, total eIF5A and β-actin (FIG. 4B). […] Relative band intensity is graphed to the right of the western blot in which the ratio between hypusine to total eIF5A is compared first between treated samples to control samples then a ratio is calculated comparing each time point relative to 10 minutes as a starting time point of reference. […] The inventors were also interested in what genes were altered at the transcriptional level when dual treating with TGFβ and GC7 at the same time to block EMT. To test for this, 4T1 and MCF10CA1a cells were plated on either plastic or fibronectin extra-cellular matrix (ECM) protein and pre-treated them with GC7 at 10 μM for 48 hours to ensure the eIF5A hypusination pathway is blocked. The inventors then treated with TGFβ at 2.5 ng/mL and collected RNA after 12 or 48 hours. […] Phase contrast images were also taken before RNA collection to show changes in morphology where EMT was either induced or reversed (FIG. 4C). […] Also, with the correct treatment time and conditions, inhibition of hypusination can block TGFβ-induced EMT.
# (§1) Next, the inventors investigated whether blockade of HDAC6 and DHPS activity could further suppress TGFβ-induced EMT either independently or simultaneously. To test this, 4T1 cells were treated with either TubA at 10 μM, GC7 at 10 μM or both for 48 hours. At this time point, protein lysates were collected as well as phase-contrast images (FIGS. 6B and 6C). At that same time point, the media was changed and the cells were re-treated with the same drugs at the same concentrations; however, this time with the addition of TGFβ at 2.5 ng/mL. The inventors collected protein lysates and phase-contrast images just one day post TGFβ treatment, calling this the 72-hour time point (FIGS. 6B and 6C). In addition, the inventors collected mRNA, protein lysates, phase-contrast and immunofluorescences images two days post TGFβ treatment, calling this the 96-hour time point (FIGS. 6A, 6B, 6C and 6D).
# Cell lines were plated in a 6 well plate at 1e5 cells/mL and left to attach overnight. […]
# E-cadherin in 4T1 cells = experiment: Western blot E-cadherin, TGFβ-induced EMT; format: cell-based, mouse; conditions: 10 μM each drug, re-treated with TGFβ 2.5 ng/mL at 48 hours, 96-hour time point
# Method: as §1
# Cell lines were plated in a 6 well plate at 1e5 cells/mL and left to attach overnight. Cells were then treated if necessary then lysed using Radioimmunoprecipitation assay (RIPA) buffer containing phosphatase and protease inhibitors and left to rotate at 4° C. for at least 3 hours. Lysates were then cleared by centrifugation at 12,000 RPM for 10 minutes at 4° C. Protein concentrations were determined using Bradford Assay. […] Band intensity graphs were quantified using Fiji software after image thresholding.
# PEAK1 protein = experiment: Western blot PEAK1; format: cell-based, mouse, human; conditions: GC7 0.1 μM to 100 μM, 48 hours; 4T1, 67NR and MCF10CA1a cells
# Method: The inventors sought to determine if the decrease in cell viability is due to the inhibition of post translational modification of eIF5A. To test this, all cell lines were treated with GC7 at 100 μM for 48 hours—which were the time point and concentration at which a decrease in cell viability was seen (FIG. 2B). The inventors then collected, performed a western blot and immunoblotted for hypusine, total eIF5A and β-actin as a loading control (FIG. 3A). […] To test if this effect is dose-dependent, 4T1, 67NR and MCF10CA1a cells were treated with various concentrations of GC7 ranging from 0.1 μM to 100 μM. Protein lysates were then collected after 48 hours of treatment and performed a western blot. […] To validate this in breast cancer cells, the inventors immunoblotted for PEAK1 as well as E-cadherin, hypusine, total eIF5A and β-actin as a loading control (FIG. 3B). […] The inventors next looked at cell viability at lower concentrations of GC7, such as 1 μM and 10 μM, where a decrease in hypusinated eIF5A is still achieved but the decrease in cell viability is not as great in lower concentrations that do still target hypusinated eIF5A (FIG. 3C).
# Cell lines were plated in a 6 well plate at 1e5 cells/mL and left to attach overnight. […] Protein concentrations were determined using Bradford Assay. […] Band intensity graphs were quantified using Fiji software after image thresholding.
smiles,measurement,setting,value
"N=C(N)NCCCCCCCN.O=S(=O)(O)O [GC7, N1-Guanyl-1,7-diaminoheptane]","TGFβ-induced EMT, ZEB1 mRNA (qPCR)","[1]; 10 μM each drug, re-treated with TGFβ 2.5 ng/mL at 48 hours, 96-hour time point",failed to block TGFβ-induced EMT
same,ZEB1 mRNA expression,"[1]; TGFβ 2.5 ng/mL 12 hours, fibronectin",this effect was blocked on fibronectin
same,ZEB1 mRNA expression,"[1]; TGFβ 2.5 ng/mL 12 hours, plastic",decreased
same,ZEB1 mRNA expression,[1]; TGFβ 2.5 ng/mL 48 hours,This effect was not seen after 48 hours
same,"TGFβ-induced EMT, E-cadherin protein expression",E-cadherin in 4T1 cells,dramatically increased
same,PEAK1 protein expression,PEAK1 protein,striking down regulation of PEAK1 protein in a dose-dependent manner
